Values after ≈ are worked out from the molar mass of the structure shown.

Assay [1] relates to Escherichia coli. Nature of the assay: Antibacterial activity against Escherichia coli ATCC 25922 at 100 ug/disk after 24 hrs by agar disk diffusion method. Format: functional. As to conditions: ATCC 25922, 24 h, read-out: DIZ. For orientation: Agar diffusion results depend on both activity and mobility in agar.
Assay [2] deals with Staphylococcus aureus. The assay is described as follows: Antibacterial activity against Staphylococcus aureus ATCC 11632 after 18 to 24 hrs by agar dilution method. Format: functional. For orientation: In agar dilution, organisms are placed on agar that contains the substance at set levels.
Assay [3] relates to Staphylococcus aureus. Nature of the assay: Antibacterial activity against Staphylococcus aureus ATCC 11632 at 100 ug/disk after 24 hrs by agar disk diffusion method. Format: functional. The following applies: ATCC 11632, 24 h, read-out: DIZ.
The test system of assay [4] is Candida albicans. The assay is described as follows: Antifungal activity against Candida albicans ATCC 90028 at 100 ug/disk after 48 hrs by agar disk diffusion method. Format: functional. As to conditions: ATCC 90028, 48 h, read-out: DIZ.
For assay [5], the system named is Escherichia coli. The assay is described as follows: Antibacterial activity against Escherichia coli ATCC 25922 after 18 to 24 hrs by agar dilution method. Format: functional.
For assay [6], the system named is Candida albicans. Nature of the assay: Antifungal activity against Candida albicans ATCC 90028 after 18 to 24 hrs by agar dilution method. Format: functional.
Assay [7] has as its system Candida albicans. Nature of the assay: Antifungal activity against Candida albicans ATCC 90028 at 10 ug/disk after 48 hrs by agar disk diffusion method. Format: functional. The following applies: ATCC 90028, 48 h, read-out: DIZ.
The next assay relates to NIH3T3. Nature of the assay: Cytotoxicity against mouse NIH/3T3 cells after 48 hrs by MTT assay. As to conditions: NIH3T3, 48 h. Format: cell-based. For orientation: Formazan colour is commonly taken as a measure of viable cells.
The subject of assay [8] is Staphylococcus aureus. Nature of the assay: microbe, parasite or virus in culture. The following applies: ATCC 11632, 24 h, read-out: DIZ.
Description: Antibacterial activity against Staphylococcus aureus ATCC 11632 at 10 ug/disk after 24 hrs by agar disk diffusion method
Assay [9] concerns Escherichia coli. Nature of the assay: microbe, parasite or virus in culture. The following applies: ATCC 25922, 24 h, read-out: DIZ.
Description: Antibacterial activity against Escherichia coli ATCC 25922 at 10 ug/disk after 24 hrs by agar disk diffusion method

For the molecule `O=c1oc2ccccc2cc1Sc1c(-c2ccc3ccccc3c2)nc2ccccc2c1-c1ccccc1`, the zone of inhibition at 100 µg/disc in the assay on Escherichia coli [1], with Staphylococcus aureus [3] and in the assay on Candida albicans [4] was < 10 mm throughout. Besides, the minimum inhibitory concentration (MIC) in the assay with Staphylococcus aureus [2], with Escherichia coli [5] and in the assay on Candida albicans [6] was 50 mg/L (≈ 98.5 µM) in each case.

As to `COC(=O)CSc1c(-c2ccc(C)cc2)nc2ccccc2c1-c1ccccc1`, the figures for the zone of inhibition at 100 µg/disc with Escherichia coli [1], with Staphylococcus aureus [3] and in the assay with Candida albicans [4] were 11 mm, 16 mm and 13 mm, respectively. Further, the MIC – broadly, the lowest concentration that inhibits growth of the organism – in the assay on Staphylococcus aureus [2] turned out to be 12.5 mg/L (≈ 31.3 µM); against Escherichia coli [5] it was 25 mg/L (≈ 62.6 µM); against Candida albicans [6], 12.5 mg/L (≈ 31.3 µM).

Turning to `O=c1oc2ccccc2cc1Sc1c(-c2ccc(Cl)cc2)nc2ccccc2c1-c1ccccc1`, the zone of inhibition at 100 µg/disc in the assay with Escherichia coli [1] was 12 mm; in the assay on Staphylococcus aureus [3] it was 12 mm; with Candida albicans [4], 15 mm. In addition, the minimal inhibitory concentration (MIC) against Staphylococcus aureus [2], against Escherichia coli [5] and against Candida albicans [6] was 25 mg/L (≈ 50.8 µM) in each case.

`Cc1ccc(-c2nc3ccccc3c(-c3ccccc3)c2Sc2cc3ccccc3oc2=O)cc1`: the values for the zone of inhibition at 100 µg/disc in the assay with Escherichia coli [1], in the assay with Staphylococcus aureus [3] and in the assay with Candida albicans [4] were 13 mm, 10 mm and 12 mm, respectively. The minimum inhibitory concentration (MIC) against Staphylococcus aureus [2], against Escherichia coli [5] and in the assay on Candida albicans [6] was 25 mg/L (≈ 53 µM) in each case.

Consider `COC(=O)CSc1c(-c2cccc(Cl)c2)nc2ccccc2c1-c1ccccc1`, for which the figures for the zone of inhibition at 100 µg/disc in the assay on Escherichia coli [1], in the assay on Staphylococcus aureus [3] and with Candida albicans [4] were 18 mm, 18 mm and 15 mm, respectively. For the same molecule, the minimum inhibitory concentration (MIC) against Staphylococcus aureus [2], in the assay with Escherichia coli [5] and in the assay with Candida albicans [6] was 12.5 mg/L (≈ 29.8 µM) each time.

In the case of `COC(=O)CSc1c(-c2ccc(Br)cc2)nc2ccccc2c1-c1ccccc1`, the values for the zone of inhibition at 100 µg/disc in the assay with Escherichia coli [1], with Staphylococcus aureus [3] and in the assay on Candida albicans [4] were 20 mm, 18 mm and 18 mm, respectively. Further, the MIC in the assay with Staphylococcus aureus [2] is 12.5 mg/L (≈ 26.9 µM); against Escherichia coli [5], 6.25 mg/L (≈ 13.5 µM); against Candida albicans [6], 12.5 mg/L (≈ 26.9 µM).

Regarding `Clc1ccccc1C(c1ccccc1)(c1ccccc1)n1ccnc1` [CLOTRIMAZOLE], it took 6.25 mg/L (≈ 18.1 µM) to inhibit growth against Candida albicans [6] (MIC). Moreover, in the assay on Candida albicans [7], the zone of inhibition at 10 µg/disc was found to be 28 mm.

Regarding `COC(=O)CSc1c(-c2ccc(-c3ccccc3)cc2)nc2ccccc2c1-c1ccccc1`, the zone of inhibition at 100 µg/disc in the assay on Escherichia coli [1] stood at 10 mm; with Staphylococcus aureus [3], 12 mm; in the assay with Candida albicans [4], 10 mm. The MIC is 25 mg/L (≈ 54.2 µM) in the assay on Staphylococcus aureus [2], 25 mg/L (≈ 54.2 µM) in the assay with Escherichia coli [5] and 50 mg/L (≈ 108 µM) in the assay on Candida albicans [6].

As for `COC(=O)CSc1c(-c2ccc(Cl)cc2)nc2ccccc2c1-c1ccccc1`, the zone of inhibition at 100 µg/disc turned out to be 12 mm in the assay with Escherichia coli [1], 13 mm in the assay on Staphylococcus aureus [3] and 15 mm with Candida albicans [4]. Moreover, the minimal inhibitory concentration (MIC) against Staphylococcus aureus [2] was found to be 25 mg/L (≈ 59.5 µM); in the assay on Escherichia coli [5], 12.5 mg/L (≈ 29.8 µM); in the assay with Candida albicans [6] it was 25 mg/L (≈ 59.5 µM).

Take `O=c1oc2ccccc2cc1Sc1c(-c2ccc(Br)cc2)nc2ccccc2c1-c1ccccc1`: the zone of inhibition at 100 µg/disc amounted to 18 mm in the assay with Escherichia coli [1], 18 mm with Staphylococcus aureus [3] and 20 mm in the assay with Candida albicans [4]. In addition, the minimum inhibitory concentration (MIC) in the assay with Staphylococcus aureus [2], against Escherichia coli [5] and against Candida albicans [6] was 12.5 mg/L (≈ 23.3 µM) each time.

Turning to `COC(=O)CSc1c(-c2ccc3ccccc3c2)nc2ccccc2c1-c1ccccc1`, the zone of inhibition at 100 µg/disc in the assay on Escherichia coli [1], in the assay on Staphylococcus aureus [3] and in the assay on Candida albicans [4] was 10 mm each time. Besides, the MIC in the assay on Staphylococcus aureus [2] came out at 50 mg/L (≈ 115 µM); against Escherichia coli [5], 50 mg/L (≈ 115 µM); in the assay on Candida albicans [6] it was 25 mg/L (≈ 57.4 µM).

For the molecule `O=c1oc2ccccc2cc1Sc1c(-c2ccc([N+](=O)[O-])cc2)nc2ccccc2c1-c1ccccc1`, the zone of inhibition at 100 µg/disc with Escherichia coli [1] was 15 mm; in the assay on Staphylococcus aureus [3] it was 15 mm; in the assay on Candida albicans [4] it was 18 mm. Besides, the MIC against Staphylococcus aureus [2] turned out to be 25 mg/L (≈ 49.7 µM); with Escherichia coli [5], 12.5 mg/L (≈ 24.9 µM); in the assay with Candida albicans [6], 12.5 mg/L (≈ 24.9 µM).

As to `COC(=O)CSc1c(-c2ccccc2)nc2ccccc2c1-c1ccccc1`, the zone of inhibition at 100 µg/disc with Escherichia coli [1] is 15 mm; in the assay on Staphylococcus aureus [3] it was 15 mm; in the assay on Candida albicans [4], 10 mm. Moreover, the minimal inhibitory concentration (MIC) with Staphylococcus aureus [2], against Escherichia coli [5] and with Candida albicans [6] was 25 mg/L (≈ 64.9 µM) each time.

As to `COc1ccc(-c2nc3ccccc3c(-c3ccccc3)c2Sc2cc3ccccc3oc2=O)cc1`, the values for the zone of inhibition at 100 µg/disc in the assay with Escherichia coli [1], with Staphylococcus aureus [3] and in the assay on Candida albicans [4] were 12 mm, 16 mm and 12 mm, respectively. Besides, the MIC in the assay on Staphylococcus aureus [2], in the assay with Escherichia coli [5] and with Candida albicans [6] was 25 mg/L (≈ 51.3 µM) each time.

Consider `COC(=O)CSc1c(-c2ccc([N+](=O)[O-])cc2)nc2ccccc2c1-c1ccccc1`, for which the figures for the zone of inhibition at 100 µg/disc in the assay with Escherichia coli [1], in the assay with Staphylococcus aureus [3] and in the assay with Candida albicans [4] were 18 mm, 16 mm and 20 mm, respectively. Moreover, the MIC was determined as 12.5 mg/L (≈ 29 µM) in the assay with Staphylococcus aureus [2], 6.25 mg/L (≈ 14.5 µM) in the assay on Escherichia coli [5] and 12.5 mg/L (≈ 29 µM) in the assay with Candida albicans [6].

On to `COC(=O)CSc1c(-c2cccc(Br)c2)nc2ccccc2c1-c1ccccc1`, for which, in the assay on NIH3T3, the IC50 – broadly, the concentration that gives 50% inhibition – was found to be 456 µM. Moreover, the zone of inhibition at 100 µg/disc in the assay with Escherichia coli [1] stood at 15 mm; in the assay on Staphylococcus aureus [3], 18 mm; with Candida albicans [4] it was 13 mm. The MIC against Staphylococcus aureus [2], against Escherichia coli [5] and against Candida albicans [6] was 12.5 mg/L (≈ 26.9 µM) throughout.

For `O=c1oc2ccccc2cc1Sc1c(-c2ccccc2)nc2ccccc2c1-c1ccccc1`, the zone of inhibition at 100 µg/disc was found to be 13 mm in the assay with Escherichia coli [1], 12 mm in the assay with Staphylococcus aureus [3] and 10 mm with Candida albicans [4]. Also, the minimal inhibitory concentration (MIC) against Staphylococcus aureus [2], in the assay on Escherichia coli [5] and in the assay with Candida albicans [6] was 25 mg/L (≈ 54.6 µM) in each case.

Take `COC(=O)CSc1c(-c2cccc(OC)c2)nc2ccccc2c1-c1ccccc1`: the zone of inhibition at 100 µg/disc in the assay with Escherichia coli [1], in the assay with Staphylococcus aureus [3] and in the assay with Candida albicans [4] was 15 mm in each case. The results for the minimum inhibitory concentration (MIC) in the assay on Staphylococcus aureus [2], in the assay with Escherichia coli [5] and against Candida albicans [6] were 25 mg/L (≈ 60.2 µM), 12.5 mg/L (≈ 30.1 µM) and 25 mg/L (≈ 60.2 µM), respectively.

In the case of `COC(=O)CSc1c(-c2ccc(OC)cc2)nc2ccccc2c1-c1ccccc1`, the zone of inhibition at 100 µg/disc in the assay with Escherichia coli [1] is 15 mm; in the assay on Staphylococcus aureus [3], 15 mm; with Candida albicans [4], 12 mm. The MIC came to 12.5 mg/L (≈ 30.1 µM) against Staphylococcus aureus [2], 12.5 mg/L (≈ 30.1 µM) in the assay with Escherichia coli [5] and 25 mg/L (≈ 60.2 µM) in the assay with Candida albicans [6].

As for `O=c1oc2ccccc2cc1Sc1c(-c2ccc(-c3ccccc3)cc2)nc2ccccc2c1-c1ccccc1`, the zone of inhibition at 100 µg/disc with Escherichia coli [1] is < 10 mm; in the assay on Staphylococcus aureus [3] it was 10 mm; in the assay with Candida albicans [4] it was 10 mm. In addition, the figures for the MIC with Staphylococcus aureus [2], with Escherichia coli [5] and in the assay on Candida albicans [6] were 25 mg/L (≈ 46.8 µM), 50 mg/L (≈ 93.7 µM) and 50 mg/L (≈ 93.7 µM), respectively.

Consider `O=C(O)c1cn(C2CC2)c2cc(N3CCNCC3)c(F)cc2c1=O` [CIPROFLOXACIN], for which the zone of inhibition at 10 µg/disc in the assay with Staphylococcus aureus [8] was 25 mm; in the assay on Escherichia coli [9] it was 28 mm.
